Reference: patent publication US6475801B1, “Anticoagulant and hemanalysis method” (Sysmex Corporation, priority 1998, dated 2002)

How the values were obtained:
[1] = system: platelets; assay: Examination on cold agglutination (platelet counting after cold storage); format: cell-based, human
Procedure: Blood samples to which CTAD of the present invention or EDTA-2K was added were subjected to the platelet counting in order to compare them with regard to cold agglutination (the pseudothrombocytopenia in cold storage). […]

[2] = system: platelets; assay: Change with time in the mean platelet volume (MPV); format: cell-based, human; details: FIG. 2
Procedure: Blood samples to which CTAD of the present invention or EDTA-2K was added were compared with regard to change with time in the size of platelets.

[3] = system: platelets; assay: Examination on EDTA-dependant pseudothrombocytopenia (platelet counting); format: cell-based, human; details: FIG. 1
Procedure: Blood samples to which CTAD of the present invention or EDTA-2K was added were subjected to the platelet counting in order to compare them with regard to the EDTA-dependant Pseudothrombocytopenia.

[4] = system: blood coagulation; assay: Blood coagulation tests (CA-1000), Example 1 A; design: species or system human; details: mean of four normal samples
Excerpt: Blood was collected into test tubes containing the anticoagulant (CTAD) prepared as above and subjected to blood cell count tests (leukocyte count (WBC), ratios of leukocytic components (neutrophil ratio (NEUT%), lymphocyte ratio (LYMPH%), monocyte ratio (MONO%), eosinophil ratio (EOSI%) and basophil ratio (BASO%)), erythrocyte count (RBC), hemoglobin concentration (Hgb), hematocrit (Hct), MCV, MCH, MCHC and platelet count (PLT))(used counter: SE-9000™ produced by Sysmex Corporation, Japan) and coagulation tests (prothrombin time (PT), activated partial thromboplastin time (APTT), fibrinogen determination (Fbg))(used tester:CA-1000 produced by Sysmex Corporation, Japan).
EDTA-2K (Venoject II™ or 5 ml produced by Terumo), 5 mg, was used as a control for the blood cell count tests and a 3.8% solution of sodium citrate (3.8% solution of sodium citrate for 5 ml produced by Terumo, Japan), 0.5 ml, was used as a control for the blood coagulation tests, respectively, in place of the above anticoagulant.
The tests were conducted with four normal samples, and mean values are calculated.

| SMILES | decrease of platelets in cold storage ([1]; 4° C., eight hours after collected) | PLT (platelet count) ([1]; 37° C. (control)) | PLT (platelet count) ([1]; preserved at 4° C., examined eight hours after collected) | change with time in the size of platelets (mean platelet volume) [2] | change with time in the number of platelets [3] | APTT (activated partial thromboplastin time) [4] | Fbg (fibrinogen determination) [4] | PT (prothrombin time) [4] |
| --- | --- | --- | --- | --- | --- | --- | --- | --- |
| O=C([O-])CN(CCN(CC(=O)O)CC(=O)O)CC(=O)[O-].[K+].[K+] [EDTA-2K] | Platelets decreased | 17.6 ×10^4 | 9.0 ×10^4 | grew in size with time | decreased with time |  |  |  |
| O=C([O-])CC(O)(CC(=O)[O-])C(=O)[O-].[Na+].[Na+].[Na+] [sodium citrate] |  |  |  |  |  | 28.6 s | 9.8 s | 9.5 s |
